Assay results as given in ChEMBL document CHEMBL5465560, “Selectivity Literature for EUbOPEN Chemogenomic Library” (2024).

Key:
[1] = biological target: T1, Serine/threonine-protein kinase Nek10 (Homo sapiens) (UniProt Q6ZWH5); assay: Selectivity interaction (KinomeScan (DiscoverX)) EUB0001049a NEK10; conditions: at 1 µM
T1 sequence (whole entry): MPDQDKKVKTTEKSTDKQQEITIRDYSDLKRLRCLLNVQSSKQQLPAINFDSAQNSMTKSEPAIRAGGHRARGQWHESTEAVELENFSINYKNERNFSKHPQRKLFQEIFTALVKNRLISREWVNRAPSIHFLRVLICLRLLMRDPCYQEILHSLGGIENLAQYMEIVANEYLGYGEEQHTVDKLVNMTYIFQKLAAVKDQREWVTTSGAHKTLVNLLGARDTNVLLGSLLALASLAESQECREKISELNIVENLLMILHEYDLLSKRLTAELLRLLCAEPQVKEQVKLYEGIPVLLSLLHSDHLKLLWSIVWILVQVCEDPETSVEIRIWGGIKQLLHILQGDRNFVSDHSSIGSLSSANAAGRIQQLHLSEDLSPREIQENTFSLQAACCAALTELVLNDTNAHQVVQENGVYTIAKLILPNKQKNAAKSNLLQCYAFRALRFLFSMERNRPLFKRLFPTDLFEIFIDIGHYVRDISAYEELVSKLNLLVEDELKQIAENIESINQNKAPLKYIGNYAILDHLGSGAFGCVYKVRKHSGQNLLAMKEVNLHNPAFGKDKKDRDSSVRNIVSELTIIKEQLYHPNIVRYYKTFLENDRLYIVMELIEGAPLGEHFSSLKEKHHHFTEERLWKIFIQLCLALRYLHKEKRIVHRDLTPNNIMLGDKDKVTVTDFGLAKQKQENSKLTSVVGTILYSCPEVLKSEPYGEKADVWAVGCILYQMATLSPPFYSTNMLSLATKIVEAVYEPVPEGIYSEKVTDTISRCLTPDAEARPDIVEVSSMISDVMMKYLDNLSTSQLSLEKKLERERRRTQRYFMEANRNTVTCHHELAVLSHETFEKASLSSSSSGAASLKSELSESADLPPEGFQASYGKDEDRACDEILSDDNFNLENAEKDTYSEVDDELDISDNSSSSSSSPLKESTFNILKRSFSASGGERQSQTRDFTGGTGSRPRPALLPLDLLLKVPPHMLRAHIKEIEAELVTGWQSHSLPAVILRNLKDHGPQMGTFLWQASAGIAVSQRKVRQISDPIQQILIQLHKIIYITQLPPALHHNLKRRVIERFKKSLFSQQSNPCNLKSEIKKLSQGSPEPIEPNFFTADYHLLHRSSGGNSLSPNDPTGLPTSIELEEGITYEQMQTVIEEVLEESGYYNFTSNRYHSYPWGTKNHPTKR

[2] = biological target: Serine/threonine-protein kinase Nek6 (Homo sapiens) (UniProt Q9HC98); assay: Selectivity interaction (KinomeScan (DiscoverX)) EUB0001079a NEK6; conditions: at 1 µM
Sequence of Serine/threonine-protein kinase Nek6 (Homo sapiens) (Q9HC98 whole entry): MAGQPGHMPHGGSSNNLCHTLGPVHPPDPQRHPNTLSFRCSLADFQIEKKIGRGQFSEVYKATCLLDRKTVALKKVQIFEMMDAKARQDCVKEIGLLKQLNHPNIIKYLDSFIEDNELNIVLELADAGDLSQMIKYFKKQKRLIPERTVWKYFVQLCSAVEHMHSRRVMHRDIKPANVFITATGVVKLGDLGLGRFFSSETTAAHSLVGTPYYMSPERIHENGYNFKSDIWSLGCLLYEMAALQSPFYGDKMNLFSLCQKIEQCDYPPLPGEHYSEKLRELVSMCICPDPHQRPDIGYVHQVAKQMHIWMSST

[3] = biological target: Cyclin-dependent kinase 16 (Homo sapiens) (UniProt Q00536); conditions: at 10 µM
Sequence of Cyclin-dependent kinase 16 (Homo sapiens) (Q00536 whole entry): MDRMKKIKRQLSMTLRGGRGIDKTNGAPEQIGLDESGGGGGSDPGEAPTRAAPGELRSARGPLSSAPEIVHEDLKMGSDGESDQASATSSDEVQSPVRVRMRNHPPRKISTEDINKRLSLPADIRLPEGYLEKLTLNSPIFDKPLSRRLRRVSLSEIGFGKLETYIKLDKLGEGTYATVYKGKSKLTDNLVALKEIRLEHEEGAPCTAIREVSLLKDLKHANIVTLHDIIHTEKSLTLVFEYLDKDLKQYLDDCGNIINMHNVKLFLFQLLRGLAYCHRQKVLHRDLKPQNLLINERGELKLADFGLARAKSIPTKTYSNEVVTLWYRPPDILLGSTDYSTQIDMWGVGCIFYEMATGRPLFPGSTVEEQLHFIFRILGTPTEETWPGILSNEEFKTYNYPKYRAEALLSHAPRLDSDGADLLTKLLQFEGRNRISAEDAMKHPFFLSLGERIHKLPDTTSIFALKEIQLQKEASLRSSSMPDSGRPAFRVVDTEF

[4] = biological target: Ribosomal protein S6 kinase alpha-4 (Homo sapiens) (UniProt O75676); assay: Selectivity interaction (KinomeScan (DiscoverX)) EUB0000045b RPS6KA4
Sequence of Ribosomal protein S6 kinase alpha-4 (Homo sapiens) (O75676 whole entry, looked up): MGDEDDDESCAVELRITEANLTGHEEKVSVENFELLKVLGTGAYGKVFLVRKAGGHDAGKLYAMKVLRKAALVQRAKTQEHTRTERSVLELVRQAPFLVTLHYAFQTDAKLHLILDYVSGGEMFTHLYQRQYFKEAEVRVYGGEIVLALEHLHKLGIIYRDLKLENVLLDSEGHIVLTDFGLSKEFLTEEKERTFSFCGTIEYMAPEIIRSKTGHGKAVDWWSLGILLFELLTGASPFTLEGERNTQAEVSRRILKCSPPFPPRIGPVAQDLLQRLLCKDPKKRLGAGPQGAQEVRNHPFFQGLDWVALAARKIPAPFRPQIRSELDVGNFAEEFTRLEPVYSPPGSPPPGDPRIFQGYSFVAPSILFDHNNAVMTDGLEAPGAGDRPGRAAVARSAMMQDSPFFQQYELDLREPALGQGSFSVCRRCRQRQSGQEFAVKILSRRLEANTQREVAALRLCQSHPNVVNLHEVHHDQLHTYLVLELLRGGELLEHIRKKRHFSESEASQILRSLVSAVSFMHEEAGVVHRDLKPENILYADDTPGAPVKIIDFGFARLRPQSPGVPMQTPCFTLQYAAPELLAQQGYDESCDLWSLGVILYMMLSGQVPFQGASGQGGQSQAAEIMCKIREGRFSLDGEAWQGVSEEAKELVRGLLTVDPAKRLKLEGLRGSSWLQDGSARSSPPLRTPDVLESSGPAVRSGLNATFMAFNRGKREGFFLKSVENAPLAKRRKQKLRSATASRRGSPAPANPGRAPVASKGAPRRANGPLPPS

[5] = biological target: Serine/threonine-protein kinase MRCK alpha (Homo sapiens) (UniProt Q5VT25); assay: Selectivity interaction (KinomeScan (DiscoverX)) EUB0000618a CDC42BPA; conditions: at 10 µM
Sequence of Serine/threonine-protein kinase MRCK alpha (Homo sapiens) (Q5VT25 whole entry): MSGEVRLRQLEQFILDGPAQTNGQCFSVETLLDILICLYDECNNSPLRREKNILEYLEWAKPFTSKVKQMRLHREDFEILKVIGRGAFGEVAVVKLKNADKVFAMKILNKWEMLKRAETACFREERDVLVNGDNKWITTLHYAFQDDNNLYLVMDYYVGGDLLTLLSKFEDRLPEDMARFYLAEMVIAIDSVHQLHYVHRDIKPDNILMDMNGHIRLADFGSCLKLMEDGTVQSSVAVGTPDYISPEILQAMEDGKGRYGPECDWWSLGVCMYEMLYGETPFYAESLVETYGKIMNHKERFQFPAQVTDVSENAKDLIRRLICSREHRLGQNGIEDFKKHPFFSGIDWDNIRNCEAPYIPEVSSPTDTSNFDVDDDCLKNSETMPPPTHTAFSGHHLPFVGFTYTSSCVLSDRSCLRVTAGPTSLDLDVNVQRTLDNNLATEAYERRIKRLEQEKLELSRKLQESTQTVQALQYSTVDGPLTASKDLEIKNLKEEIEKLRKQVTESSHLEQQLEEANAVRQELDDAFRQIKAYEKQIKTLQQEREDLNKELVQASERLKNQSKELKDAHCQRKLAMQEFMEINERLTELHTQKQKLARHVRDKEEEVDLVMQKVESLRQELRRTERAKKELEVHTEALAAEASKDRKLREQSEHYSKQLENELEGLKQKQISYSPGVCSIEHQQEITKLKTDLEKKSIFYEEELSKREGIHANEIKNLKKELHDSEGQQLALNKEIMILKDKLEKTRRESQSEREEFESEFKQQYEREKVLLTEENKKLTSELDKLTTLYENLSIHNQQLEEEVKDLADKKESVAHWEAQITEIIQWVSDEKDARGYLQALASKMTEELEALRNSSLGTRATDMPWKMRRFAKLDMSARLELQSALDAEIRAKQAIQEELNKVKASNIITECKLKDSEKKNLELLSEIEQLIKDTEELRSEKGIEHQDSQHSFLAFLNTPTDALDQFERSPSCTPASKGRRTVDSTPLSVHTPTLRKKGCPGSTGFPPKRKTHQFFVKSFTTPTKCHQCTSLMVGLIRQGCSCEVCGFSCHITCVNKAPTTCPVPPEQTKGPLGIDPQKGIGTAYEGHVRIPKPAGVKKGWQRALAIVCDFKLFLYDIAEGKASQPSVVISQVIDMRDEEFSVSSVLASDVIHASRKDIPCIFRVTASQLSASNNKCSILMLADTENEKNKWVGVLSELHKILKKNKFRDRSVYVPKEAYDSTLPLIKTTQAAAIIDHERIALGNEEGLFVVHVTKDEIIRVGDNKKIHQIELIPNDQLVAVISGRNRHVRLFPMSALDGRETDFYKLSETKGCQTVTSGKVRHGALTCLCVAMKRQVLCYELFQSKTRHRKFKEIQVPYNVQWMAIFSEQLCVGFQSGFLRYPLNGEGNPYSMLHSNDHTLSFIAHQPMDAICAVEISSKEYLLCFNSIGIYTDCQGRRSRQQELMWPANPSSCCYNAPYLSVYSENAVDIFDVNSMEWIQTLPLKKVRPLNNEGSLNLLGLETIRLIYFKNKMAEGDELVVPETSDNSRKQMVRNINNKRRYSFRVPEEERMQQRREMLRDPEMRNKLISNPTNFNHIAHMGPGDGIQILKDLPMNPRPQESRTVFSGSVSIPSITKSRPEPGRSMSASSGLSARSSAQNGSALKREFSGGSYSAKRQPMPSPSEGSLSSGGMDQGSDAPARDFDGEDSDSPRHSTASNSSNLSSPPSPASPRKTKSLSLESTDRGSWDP

[6] = biological target: Cyclin-dependent kinase-like 1 (Homo sapiens) (UniProt Q00532); assay: Selectivity interaction (KinomeScan (DiscoverX)) EUB0000618a CDKL1; conditions: at 10 µM
Sequence of Cyclin-dependent kinase-like 1 (Homo sapiens) (Q00532 whole entry): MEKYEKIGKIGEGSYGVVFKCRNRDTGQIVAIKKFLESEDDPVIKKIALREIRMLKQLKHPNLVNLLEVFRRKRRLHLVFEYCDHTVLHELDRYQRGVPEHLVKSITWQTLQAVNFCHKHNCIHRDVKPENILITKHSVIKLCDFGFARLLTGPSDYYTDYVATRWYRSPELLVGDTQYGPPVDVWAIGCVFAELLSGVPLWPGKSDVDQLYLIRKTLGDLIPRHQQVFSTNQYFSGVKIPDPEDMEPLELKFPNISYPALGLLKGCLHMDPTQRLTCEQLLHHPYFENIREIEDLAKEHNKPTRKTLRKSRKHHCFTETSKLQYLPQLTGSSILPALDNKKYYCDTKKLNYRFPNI

[7] = biological target: Mitogen-activated protein kinase kinase kinase kinase 5 (Homo sapiens) (UniProt Q9Y4K4); assay: Selectivity interaction (KinomeScan (DiscoverX)) EUB0000695a MAP4K5; conditions: at 100 nM
Sequence of Mitogen-activated protein kinase kinase kinase kinase 5 (Homo sapiens) (Q9Y4K4 whole entry, looked up): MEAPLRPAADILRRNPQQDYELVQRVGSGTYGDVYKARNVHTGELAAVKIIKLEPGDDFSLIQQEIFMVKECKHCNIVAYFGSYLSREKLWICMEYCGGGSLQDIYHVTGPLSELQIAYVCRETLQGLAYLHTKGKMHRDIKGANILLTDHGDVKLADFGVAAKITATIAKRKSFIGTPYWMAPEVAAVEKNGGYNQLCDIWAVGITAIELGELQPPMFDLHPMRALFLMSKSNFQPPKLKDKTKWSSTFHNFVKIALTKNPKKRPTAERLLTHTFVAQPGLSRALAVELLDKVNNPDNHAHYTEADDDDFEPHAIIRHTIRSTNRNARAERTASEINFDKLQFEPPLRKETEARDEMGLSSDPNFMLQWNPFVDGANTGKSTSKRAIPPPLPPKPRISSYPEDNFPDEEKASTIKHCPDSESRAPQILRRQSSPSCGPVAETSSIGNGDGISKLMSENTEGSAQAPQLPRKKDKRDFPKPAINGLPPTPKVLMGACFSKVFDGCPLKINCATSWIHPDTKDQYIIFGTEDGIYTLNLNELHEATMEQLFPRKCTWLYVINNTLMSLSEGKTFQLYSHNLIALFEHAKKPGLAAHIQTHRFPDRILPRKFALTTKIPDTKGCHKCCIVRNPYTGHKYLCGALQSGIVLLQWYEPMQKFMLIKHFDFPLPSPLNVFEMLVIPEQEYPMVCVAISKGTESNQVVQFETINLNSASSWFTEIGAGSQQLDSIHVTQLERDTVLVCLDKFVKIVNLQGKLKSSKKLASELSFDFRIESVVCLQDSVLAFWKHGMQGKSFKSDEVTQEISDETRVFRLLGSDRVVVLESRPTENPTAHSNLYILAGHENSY

[8] = system: Epidermal growth factor receptor (Homo sapiens), P00533 [UNDEFINED MUTATION]; assay: Selectivity interaction (KinomeScan (DiscoverX)) EUB0000607a EGFR; conditions: at 10 µM
[9] = biological target: T2, Ephrin type-B receptor 4 (Homo sapiens) (UniProt P54760); assay: Selectivity interaction (KinomeScan (DiscoverX)) EUB0000607a EPHB4; conditions: at 10 µM
T2 sequence (whole entry): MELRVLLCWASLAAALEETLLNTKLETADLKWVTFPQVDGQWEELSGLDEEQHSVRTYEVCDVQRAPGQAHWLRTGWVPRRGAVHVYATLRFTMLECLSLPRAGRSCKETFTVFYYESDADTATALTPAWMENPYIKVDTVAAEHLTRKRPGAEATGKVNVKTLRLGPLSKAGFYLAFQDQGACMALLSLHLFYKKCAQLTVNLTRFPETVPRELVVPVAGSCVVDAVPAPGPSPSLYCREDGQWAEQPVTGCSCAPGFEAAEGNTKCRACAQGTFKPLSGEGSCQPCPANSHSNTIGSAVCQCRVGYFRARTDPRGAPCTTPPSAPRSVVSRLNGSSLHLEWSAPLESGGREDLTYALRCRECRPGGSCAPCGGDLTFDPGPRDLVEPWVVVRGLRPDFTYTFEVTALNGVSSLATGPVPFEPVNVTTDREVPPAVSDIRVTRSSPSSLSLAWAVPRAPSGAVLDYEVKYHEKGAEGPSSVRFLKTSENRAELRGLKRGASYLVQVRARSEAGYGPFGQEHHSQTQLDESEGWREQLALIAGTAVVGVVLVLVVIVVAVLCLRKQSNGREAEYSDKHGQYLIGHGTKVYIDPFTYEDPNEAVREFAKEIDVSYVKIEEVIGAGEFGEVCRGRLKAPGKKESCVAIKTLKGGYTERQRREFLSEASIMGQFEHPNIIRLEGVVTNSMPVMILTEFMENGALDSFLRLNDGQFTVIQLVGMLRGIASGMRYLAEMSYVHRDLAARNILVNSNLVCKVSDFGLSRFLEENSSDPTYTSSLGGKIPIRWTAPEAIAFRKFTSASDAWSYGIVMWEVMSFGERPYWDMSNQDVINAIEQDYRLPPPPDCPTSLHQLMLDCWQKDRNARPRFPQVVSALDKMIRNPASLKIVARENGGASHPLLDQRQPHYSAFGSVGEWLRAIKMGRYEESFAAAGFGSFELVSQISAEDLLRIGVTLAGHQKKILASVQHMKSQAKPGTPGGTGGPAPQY

Compound: COc1cc(Nc2nc(C)cc(-c3cnn4nc(OC)ccc34)n2)cc(C(F)(F)F)c1
- % of control [1]: 100%

Compound: Nc1cnc(N2CCc3cc(S(=O)(=O)Nc4c(F)cc(Cl)cc4F)cc(N4CCCC4=O)c32)nc1 [TP-020n]
- % of control [2]: 100%

Compound: CCN(CC)CCCCNc1ncc2cc(-c3cc(OC)cc(OC)c3)c(NC(=O)NC(C)(C)C)nc2n1
- % of control [3]: 100%

Compound: C=CC(=O)Nc1cc(-n2c(=O)ccc3cnc4ccc(-c5ccc(NS(C)(=O)=O)cc5)cc4c32)ccc1C
- % of control ([4]; at 1 µM): 100%
- % of control ([4]; at 10 µM): 100%

Compound: O[C@H]1CC[C@H](Nc2ncc3nc(Nc4c(F)cc(F)cc4F)n([C@H]4CCOC4)c3n2)CC1
- % of control [5]: 100%
- % of control [6]: 95%

Compound: Cc1cc(F)c(C(=O)Nc2cccc(-c3nncn3C(C)C)n2)cc1-n1cnc(C2CC2)c1
- % of control [7]: 100%

Compound: CNC(=O)Nc1ccc(-c2nc(N3CC4CCC(C3)O4)c3cnn(C4CCC5(CC4)OCCO5)c3n2)cc1
- % of control [8]: 55%
- % of control [9]: 100%
